Experimental data taken from ChEMBL document CHEMBL1201862, “PubChem BioAssay data set” (2004).
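Step 1: Grow cells in 96-well plates. Step 2: Expose to compound for 48 hours at 5 concentrations. Step 3: Interpolate endpoints linearly; if unreached, use highest concentration. GI50: concentration for 50% inhibition of growth.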 The source made the active and inactive calls. No stated cut-off is given here; in the data, active = GI50 up to about 1.1 µM and inactive = higher.

Experiments:
Experiment in all cases: DTP human tumour cell line panel, 48 h
K562 = system: K562
NCI-H226 = system: NCI-H226
MOLT-4 = system: MOLT-4
SF-295 = system: SF-295
LOX IMVI = system: LOX IMVI
NCI-H460 = system: NCI-H460
A498 = system: A498
MDA-N = system: MDA-N
NCI/ADR-RES = system: NCI/ADR-RES
COLO 205 = system: COLO 205
RPMI-8226 = system: RPMI-8226
MCF7 = system: MCF7
SNB-19 = system: SNB-19
UO-31 = system: UO-31
HT-29 = system: HT-29
NCI-H522 = system: NCI-H522
CCRF-CEM = system: CCRF-CEM
UACC-62 = system: UACC-62
OVCAR-8 = system: OVCAR-8
SR = system: SR

Measured: GI50

Nc1nc(O)nc2c1ncn2C1OC(CO)C(O)C1O (centres undefined)
inactive: K562 44.2 µM | NCI-H226 69.3 µM | MOLT-4 26.1 µM | SF-295 > 100 µM | LOX IMVI 38.8 µM | NCI-H460 > 100 µM | A498 > 100 µM | MDA-N 46.5 µM | NCI/ADR-RES 22.6 µM | COLO 205 > 100 µM | RPMI-8226 61.7 µM | MCF7 29 µM | SNB-19 > 100 µM | UO-31 49.9 µM | HT-29 > 100 µM | NCI-H522 > 100 µM | CCRF-CEM 33 µM | UACC-62 > 100 µM | OVCAR-8 23.8 µM

O=S1(=O)c2ccccc2N2CCCc3cc(Cl)cc1c32
inactive: K562 > 100 µM | NCI-H226 > 100 µM | MOLT-4 > 100 µM | SF-295 29.3 µM | LOX IMVI > 100 µM | NCI-H460 > 100 µM | A498 > 100 µM | MDA-N > 100 µM | NCI/ADR-RES > 100 µM | COLO 205 > 100 µM | MCF7 > 100 µM | SNB-19 56.6 µM | UO-31 > 100 µM | HT-29 > 100 µM | SR > 100 µM | CCRF-CEM > 100 µM | UACC-62 60.1 µM | OVCAR-8 > 100 µM

Nc1nc(N)c(NC(=O)CCCO)c(=O)[nH]1
inactive: K562 > 100 µM | NCI-H226 > 100 µM | MOLT-4 > 100 µM | SF-295 > 100 µM | LOX IMVI > 100 µM | NCI-H460 > 100 µM | A498 > 100 µM | MDA-N > 100 µM | NCI/ADR-RES > 100 µM | COLO 205 > 100 µM | RPMI-8226 > 100 µM | MCF7 > 100 µM | SNB-19 > 100 µM | UO-31 > 100 µM | HT-29 > 100 µM | NCI-H522 67.1 µM | CCRF-CEM > 100 µM | UACC-62 > 100 µM | OVCAR-8 > 100 µM

Cn1c(=O)c2c(O)cc(N)nc2n(C)c1=O
inactive: K562 > 100 µM | NCI-H226 > 100 µM | MOLT-4 > 100 µM | SF-295 > 100 µM | LOX IMVI > 100 µM | NCI-H460 > 100 µM | A498 > 100 µM | MDA-N > 100 µM | NCI/ADR-RES > 100 µM | COLO 205 > 100 µM | RPMI-8226 > 100 µM | MCF7 > 100 µM | SNB-19 > 100 µM | UO-31 > 100 µM | HT-29 > 100 µM | NCI-H522 > 100 µM | CCRF-CEM > 100 µM | UACC-62 > 100 µM | OVCAR-8 63.4 µM

CC(=O)NCc1nc(C#N)c(N)o1
inactive: K562 > 100 µM | NCI-H226 > 100 µM | MOLT-4 > 100 µM | SF-295 > 100 µM | LOX IMVI > 100 µM | NCI-H460 > 100 µM | A498 > 100 µM | MDA-N > 100 µM | NCI/ADR-RES > 100 µM | COLO 205 > 100 µM | RPMI-8226 > 100 µM | MCF7 > 100 µM | SNB-19 > 100 µM | UO-31 > 100 µM | HT-29 > 100 µM | NCI-H522 > 100 µM | CCRF-CEM > 100 µM | UACC-62 > 100 µM | OVCAR-8 > 100 µM

c1ccc(-n2nc3ccc4nonc4c3n2)cc1
inactive: K562 > 100 µM | MOLT-4 > 100 µM | SF-295 > 100 µM | LOX IMVI > 100 µM | NCI-H460 > 100 µM | MDA-N > 100 µM | NCI/ADR-RES > 100 µM | COLO 205 > 100 µM | RPMI-8226 > 100 µM | MCF7 > 100 µM | SNB-19 45.9 µM | HT-29 > 100 µM | SR > 100 µM | CCRF-CEM > 100 µM | UACC-62 > 100 µM | OVCAR-8 > 100 µM

Oc1ccc(Br)cc1/C=N/c1cccc(C(F)(F)F)c1
inactive: K562 12.4 µM | NCI-H226 17.3 µM | MOLT-4 23.1 µM | SF-295 38.6 µM | LOX IMVI 18.3 µM | NCI-H460 > 100 µM | A498 > 100 µM | MDA-N 32.9 µM | NCI/ADR-RES 28.5 µM | COLO 205 96.6 µM | RPMI-8226 28.1 µM | MCF7 14.5 µM | SNB-19 39.4 µM | UO-31 35.6 µM | HT-29 37.8 µM | NCI-H522 > 100 µM | CCRF-CEM 3.37 µM | UACC-62 25.1 µM | OVCAR-8 30.4 µM
